According to ChEMBL document CHEMBL3886918, “Pyrimidine compounds useful in the treatment of diseases mediated by IKKE and/or TBK1 mechanisms” (2016):

Biological target: T1, Serine/threonine-protein kinase TBK1 (Homo sapiens, UniProt Q9UHD2)
T1 sequence (Q9UHD2 whole entry): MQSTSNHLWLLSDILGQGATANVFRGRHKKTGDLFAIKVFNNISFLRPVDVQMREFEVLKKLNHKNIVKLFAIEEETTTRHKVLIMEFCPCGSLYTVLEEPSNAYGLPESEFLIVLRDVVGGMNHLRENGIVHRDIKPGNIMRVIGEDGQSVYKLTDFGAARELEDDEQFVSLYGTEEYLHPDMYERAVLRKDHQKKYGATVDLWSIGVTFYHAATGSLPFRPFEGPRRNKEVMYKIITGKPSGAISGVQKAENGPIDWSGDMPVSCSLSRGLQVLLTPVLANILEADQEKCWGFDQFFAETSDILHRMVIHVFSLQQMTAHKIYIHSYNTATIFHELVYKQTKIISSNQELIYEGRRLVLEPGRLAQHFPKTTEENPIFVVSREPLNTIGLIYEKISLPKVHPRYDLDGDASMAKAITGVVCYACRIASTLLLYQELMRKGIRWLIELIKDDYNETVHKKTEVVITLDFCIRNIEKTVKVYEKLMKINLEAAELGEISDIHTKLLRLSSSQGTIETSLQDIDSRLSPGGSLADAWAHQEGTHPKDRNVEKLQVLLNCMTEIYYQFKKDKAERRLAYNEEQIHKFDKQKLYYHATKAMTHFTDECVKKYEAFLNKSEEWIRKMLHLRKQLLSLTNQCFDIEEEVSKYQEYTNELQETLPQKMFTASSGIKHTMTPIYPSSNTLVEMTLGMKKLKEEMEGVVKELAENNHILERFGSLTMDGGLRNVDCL
Assay: Time-Resolved Fluorescence-based Lanthascreen Assay: Kinase inhibition assays (10 μL) were performed at 20° C. in 384-well plate format. Compound IC50 values were determined at the apparent Km for ATP (20 μM) based on a radiometric assay (Invitrogen) using 8 or 10 point curves in duplicate. The final reaction conditions contained 400 nM fluorescein-IkBα substrate ([…]), 20 μM ATP, 2 nM or 8 nM IKKε or TBK1 kinase respectively, and 3% DMSO in kinase assay buffer consisting of 50 mM HEPES (pH 7.5), 10 mM MgCl, 1 mM EGTA, 0.01% Brij-35.Compound dilutions were prepared from 10 mM DMSO stocks by dilution into DMSO. Compound dilution series were further diluted in kinase assay buffer to give a 12% DMSO stock, the final concentration in the assay being 3% DMSO.The kinase phosphorylation assay was initiated by the addition of the kinase and the reaction was allowed to proceed for 1 h or 2.5 h for IKKε and TBK-1 kinase respectively.

IC50 [nM] | SMILES
< 1000 | CC(=O)NC1CCN(c2ncc(-c3ccnc(Nc4ccc(CN5CCOCC5)nc4)n3)cc2C#N)C1 (stereo not given)
< 30 | N#Cc1cc(-c2ccnc(Nc3ccc(CN4C(=O)OCC4CO)nc3)n2)cnc1N1CC[C@H](F)C1 (stereo not given in full)
< 30 | N#Cc1cc(-c2ccnc(Nc3cccc(C(=O)N4CCNCC4)c3)n2)cnc1N1CC[C@H](F)C1
< 30 | N#Cc1cc(-c2nc(Nc3ccnc(NC(=O)CN4CCOCC4)c3)ncc2F)cnc1N1CC[C@H](F)C1
< 30 | N#Cc1cc(-c2ccnc(Nc3ccc(N)nc3)n2)cnc1N1CC[C@H](F)C1
